Measurements from patent US7144731B2, “SCF antibody compositions and methods of using the same” (Amgen Inc., priority 1989, dated 2006).

What was measured:
[1] = test system: 5-FU treated mouse bone marrow cells; test: HPP-CFC assay; type: cell-based; details: COS-1 supernatants, concentrations tested
From the text: There are a variety of biological activities which can be attributed to the natural mammalian rat SCF as well as the recombinant rat SCF protein. One such activity is its effect on early hematopoietic cells. This activity can be measured in a High Proliferative Potential Colony Forming Cell (HPP-CFC) assay [Zsebo, et al., supra (1988)]. To investigate the effects of factors on early hematopoietic cells, the HPP-CFC assay system utilizes mouse bone marrow derived from animals 2 days after 5-fluorouracil (5-FU) treatment. […] The rat SCF is plated in the presence of CSF-1 or IL-6 in semi-solid agar cultures. The agar cultures contain McCoys complete medium (GIBCO), 20% fetal bovine serum, 0.3% agar, and 2×10^5 bone marrow cells/ml. The McCoys complete medium contains the following components: 1× McCoys medium supplemented with 0.1 mM pyruvate, 0.24× essential amino acids, 0.24× non-essential amino acids, 0.027% sodium bicarbonate, 0.24× vitamins, 0.72 mM glutamine, 25 μg/ml L-serine, and 12 μg/ml L-asparagine. The bone marrow cells are obtained from Balb/c mice injected i.v. with 150 mg/kg 5-FU. The femurs are harvested 2 days post 5-FU treatment of the mice and bone marrow is flushed out. The red blood cells are lysed with red blood cell lysing reagent (Becton Dickenson) prior to plating. Test substances are plated with the above mixture in 30 mm dishes. Fourteen days later the colonies (>1 mm in diameter) which contain thousands of cells are scored. This assay was used throughout the purification of natural mammalian cell-derived rat SCF.

[2] = test system: murine mast cell line, MC/9; test: MC/9 ^3H-thymidine uptake assay; type: cell-based; details: COS-1 supernatants, concentrations tested
Experimental: Another useful biological activity of both naturally-derived and recombinant rat SCF is the ability to cause the proliferation of the […] murine mast cell line, MC/9 (ATCC CRL 8306). MC/9 cells are cultured with a source of […] according to the ATCC CRL 8306 protocol. The medium used in the bioassay is RPMI 1640, 4% fetal bovine serum, 5×10^−5M 2-mercaptoethanol, and 1× glutamine-pen-strep. The MC/9 cells proliferate in response to SCF without the requirement for other growth factors. This proliferation is measured by first culturing the cells for 24 h without growth factors, plating 5000 cells in each well of 96 well plates with test sample for 48 h, pulsing for 4 h with 0.5 uCi ^3H-thymidine (specific activity 20 Ci/mmol), harvesting the solution onto glass fiber filters, and then measuring specifically-bound radioactivity. This assay was used in the purification of mammalian cell derived rat SCF after the ACA 54 gel filtration step, section C2 of this Example. Typically, SCF caused a 4–10 fold increase in CPM over background.

human bone marrow = test: Human bone marrow colony assay; type: cell-based; details: for Colony #/100,000 cells ± SD: COS-1 CM, 20 U/ml EPO, 14 days, colonies ≥0.2 mm
Experimental: The cDNA of human SCF corresponding to amino acids 1–162 obtained by PCR reactions outlined in Example 3D, was expressed in COS-1 cells as described for the rat SCF in Example 4. COS-1 supernatants were assayed on human bone marrow as well as in the murine HPP-CFC and MC/9 assays. […] The culture conditions of the assay were as follows: human bone marrow from healthy volunteers was centrifuged over Ficoll-Hypaque gradients (Pharmacia) and cultured in 2.1% methyl cellulose, 30% fetal calf serum, 6×10^−5 M 2-mercaptoethanol, 2 mM glutamine, ISCOVE'S medium (GIBCO), 20 U/ml EPO, and 1×10^5 cells/ml for 14 days in a humidified atmosphere containing 7% O2, 10% CO2, and 83% N2. Only those colonies of 0.2 mm in size or larger are indicated.
Recombinant human SCF was tested in agar colony assays on human bone marrow in combination with other growth factors as described above.

KG-1 = KG-1 soft agar cloning assay; type: cell-based, human; details: COS-1 supernatant
Experimental: Another activity of recombinant human SCF is the ability to cause proliferation in soft agar of the human acute myelogenous leukemia (AML) cell line, KG-1 (ATCC CCL 246). COS-1 supernatants from transfected cells were tested in a KG-1 agar cloning assay [Koeffler et al., Science, 200, 1153–1154 (1978)] essentially as described except cells were plated at 3000/ml.

mouse bone marrow cells = test: Pre-B cell colony formation in agar cultures; type: cell-based
From the text: The ability of recombinant rat SCF^1-164 (rrSCF^1-164), to act synergistically with IL-7 to enhance lymphoid cell proliferation was studied in agar cultures of mouse bone marrow. In this assay, the colonies formed with rrSCF^1-164 alone contained monocytes, neutrophils, and blast-cells, while the colonies stimulated by IL-7 alone or in combination with rrSCF^1-164 contained primarily pre-B cells. Pre-B cells, characterized as B220^+, sIg^−, cμ^+, were identified by FACS analysis of pooled cells using fluorescence-labeled antibodies to the B220 antigen [Coffman, Immunol. Rev., 69, 5 (1982)] and to surface Ig (FITC-goat anti-K, Southern Biotechnology Assoc., Birmingham, Ala.); and by analysis of cytospin slides for cytoplasmic μ expression using fluorescence-labeled antibodies (TRITC-goat anti-μ, Southern Biotechnology Assoc.,). Recombinant human IL-7 (rhIL-7) was obtained from Biosource International (Westlake Village, Calif.). When rrSCF^1-164 was added in combination with the pre-B cell growth factor IL-7, a synergistic increase in colony formation was observed (Table 16), indicating a stimulatory role of rrSCF^1-164 on early B cell progenitors.

UT-7 cells = test: UT-7 ^3H-thymidine uptake assay; type: cell-based, human
Experimental: UT-7 cells are a human megakaryocyte, huGM-CSF responsive cell line obtained from John Adamson, New York Blood Center, New York, N.Y. UT-7 cells were cultured in Iscove's Modified Dulbecco's Medium, 10% FBS, 1× glutamine, 5 \g/ml huGM-CSF. Cells are passaged twice a week at 1×10^5 cells/ml.
Cells were washed twice in phosphate buffered saline (PBS) and resuspended in RPMI medium with 4% FBS and glutamine penicillin streptomycin (GPS) (Irvine Scientific Cat No. 9316 used at 1% volume per volume) at 4×10^4 cells/ml before use. Human SCF along with specific samples were added to 4000 cells/well in 96 well plates and were cultured for 72 hrs. 0.5 uCi/well of ^3H-Thymidine was then added to each plate, plates were harvested and counted 4 hours later.

[3] = biological target: T1, SCF receptor (OCIM1 plasma membrane) (Homo sapiens, UniProt P10721); test: SCF radioreceptor assay; type: binding
T1 construct: endogenous in cells; host or cells: OCIM1 human erythroleukemic cells, plasma membrane preparation
Experimental: OCIM1 cells, [Papayannopoulou et al., Blood 72:1029–1038 (1988)] are a human erythroleukemic cell line expressing many human SCF receptors per cell. These cells are grown in Iscove's Modified Dulbecco's Medium, 10% FBS, and 1× glutamine and passaged 3 times a week to 1×10^5 cells/ml.
Preparation of the OCIM1 plasma membrane is as follows with all steps performed on ice.
First, 40 T175 flasks of cells were grown-up in OCIM1 culture medium, for a total of 1.9×10^9 […]. The conditioned medium and 1 mM Phenyl Methyl Sulfonyl Fluoride (PMSF) protease inhibitor, was spun down in 8×250 ml tubes at 1000 rpm for 10 minutes at 4° C. Cells were washed with PBS and repelleted in 4×50 ml centrifuge tubes at 1000 rpm for 10 minutes at 4° C. Cells were resuspended in 20 ml ice cold PBS with glucose sodium pyruvate (Gibco Cat #310-4287). The 20 ml cell solution was put into a pre-pressurized, pre-chilled (4° C.) “cell bomb” designed to lyse the cells. Cells were pressurized at 400–650 PSI for 10 minutes to establish equilibrium. When the pressure is released cell lysis occurs.
At this point the cells were checked for the percentage of cell lysis. 90% lysis was common. The cell suspension was resuspended in 80 mls sucrose buffer (0.25M sucrose, 10 mM Tris, 1 mM EDTA in double distilled (dd) H2O, filtered through a 0.45 u filter, pH 7.0) and divided between two 40 ml screwcap tubes. Tubes were spun at 5900 RPM for 10 minutes in a Beckman J2-21 centrifuge, JA-20 rotor at 4° C. The supernatants were saved and spun one more time as above to further remove any unwanted material. Supernatants were saved and distributed equally into 2 nalgene 40 ml centrifuge tubes. These supernatants were centrifuged at 16,000 RPM 4° C. for 30 min. in J2-21 centrifuge, JA-20 rotor. These supernatants were discarded being careful to save pellets. Each pellet was resuspended in sucrose buffer so there were 20 mls per tube in 4×36 ml plastic ultracentrifuge tubes. Using a 20 ml syringe and a large trochar, the solution was carefully underlayered in each tube with ice cold 36% sucrose solution (36.1 g sucrose/100 mls ddH2O), bringing the level of the liquid to within 2 mm of the top of the tube. Without disturbing the interface, each tube was carefully placed into each of […] titanium ultracentrifuge tubes. Tubes were centrifuged at 27,000 RPM, 4° C. for 75 minutes in an ultracentrifuge. These tubes were carefully removed from the rotor and from titanium buckets, placed in a rack with the 36% sucrose interface visible. The membraneous material at the interface was collected with a pasteur pipet and transfered into 2 clean nalgene 40 ml centrifuge tubes. Volume was brought up to 40 mls with ice cold sucrose buffer. Tubes were balanced and centrifuged as before at 5900 RPM in J2-21 centrifuge. […]

normal human bone marrow = test: Human CFU-GM assay; type: cell-based; details: average of triplicate cultures; SCF = COS-1 supernatant 4 days after transfection

## V19.8 human SCF^1-162: recombinant human SCF amino acids 1–162, COS-1 supernatant
[1]
  activity in murine HPP-CFC assay: not active
[2]
  activity in murine MC/9 assay: not active
Human bone marrow; 50 μl assayed
  Colony #/100,000 cells ± SD: 22 ± 3
Human bone marrow; 100 μl assayed
  Colony #/100,000 cells ± SD: 33 ± 7
Human bone marrow; COS-1 supernatants
  activity on human bone marrow: active on human bone marrow
KG-1; 1.5 μl assayed
  Colony #/3000 Cells ± SD: 6 ± 6
KG-1; 3 μl assayed
  Colony #/3000 Cells ± SD: 6 ± 4
KG-1; 6 μl assayed
  Colony #/3000 Cells ± SD: 9 ± 5
KG-1; 12 μl assayed
  Colony #/3000 Cells ± SD: 8 ± 0
KG-1; 25 μl assayed, triplicate
  Colony #/3000 Cells ± SD: 14 ± 0

## hSCF: Recombinant human SCF tested in agar colony assays; form not stated at Table 13
Human bone marrow; agar colony assay, factors alone or combined
  Colony #/10^5 cells (14 Days): 0

## rhIL-7: Recombinant human IL-7 from Biosource International
Mouse bone marrow cells; 25 ng
  Colony Number per 5 × 10^4 mouse bone marrow cells plated: 4 ± 2
Mouse bone marrow cells; 50 ng
  Colony Number per 5 × 10^4 mouse bone marrow cells plated: 13 ± 6
Mouse bone marrow cells; 100 ng
  Colony Number per 5 × 10^4 mouse bone marrow cells plated: 18 ± 6
Mouse bone marrow cells; 200 ng, mean of triplicate dishes ± SD
  Colony Number per 5 × 10^4 mouse bone marrow cells plated: 21 ± 6

## SCF^1-137: E. coli human SCF analog, amino acids 1 to 137
UT-7 cells
  specific activity in the UT-7 assay: about 25 % of the value for SCF^1-164
[3]
  specific activity in the radioreceptor assay: full specific activity

## SCF^1-248: full length recombinant human stem cell factor formed in E. coli
UT-7 cells; final material after cation exchange chromatography
  activity in the UT-7 assay: no activity
UT-7 cells; material following anion exchange chromatography
  activity in the UT-7 assay: active

## SCF^11-164: E. coli human SCF analog, amino acids 11 to 164
UT-7 cells
  specific activity in the UT-7 assay: negligible specific activity
[3]
  specific activity in the radioreceptor assay: negligible specific activity

B1: CSF-1: human macrophage colony-stimulating factor (protein, UniProt P09603 33-554, looked up)
Macrophage colony-stimulating …: EEVSEYCSHMIGSGHLQSLQRLIDSQMETSCQITFEFVDQEQLKDPVCYLKKAFLLVQDIMEDTMRFRDNTPNAIAIVQLQELSLRLKSCFTKDYEEHDKACVRTFYETPLQLLEKVKNVFNETKNLLDKDWNIFSKNCNNSFAECSSQDVVTKPDCNCLYPKAIPSSDPASVSPHQPLAPSMAPVAGLTWEDSEGTEGSSLLPGEQPLHTVDPGSAKQRPPRSTCQSFEPPETPVVKDSTIGGSPQPRPSVGAFNPGMEDILDSAMGTNWVPEEASGEASEIPVPQGTELSPSRPGGGSMQTEPARPSNFLSASSPLPASAKGQQPADVTGTALPRVGPVRPTGQDWNHTPQKTDHPSALLRDPPEPGSPRISSLRPQGLSNPSTLSAQPQLSRSHSSGSVLPLGELEGRRSTRDRRSPAEPEGGPASEGAARPLPRFNSVPLTDTGHERQSEGSFSPQLQESVFHLLVPSVILVLLAVGGLLFYRWRRRSHQEPQRADSPLEQPEGSPLTQDDRQVELPV
Normal human bone marrow
  Colony #/100,000 cells (±SEM): 0
